Assay results published in publication doi:10.1101/2022.11.01.514793v1 (biorxiv, 2022).

The compounds below were run against T1, AdgB (Variovorax paradoxus, UniProt T1X8R6) (assay: isothermal titration calorimetry).
T1 sequence (T1X8R6 28-388 limits assumed): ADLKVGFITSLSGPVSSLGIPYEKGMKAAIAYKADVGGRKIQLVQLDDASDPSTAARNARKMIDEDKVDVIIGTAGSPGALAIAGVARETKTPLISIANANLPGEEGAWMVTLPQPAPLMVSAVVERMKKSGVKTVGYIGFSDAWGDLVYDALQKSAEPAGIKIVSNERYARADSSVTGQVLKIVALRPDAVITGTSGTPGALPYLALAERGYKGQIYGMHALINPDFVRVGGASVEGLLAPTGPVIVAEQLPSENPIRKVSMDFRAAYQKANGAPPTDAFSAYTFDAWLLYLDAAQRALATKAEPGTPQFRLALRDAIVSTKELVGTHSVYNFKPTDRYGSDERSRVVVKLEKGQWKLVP
Format: binding

Kd | SMILES
8.4 µM | O=C(O)Cc1c[nH]c2cccc(Cl)c12 [4-Cl-IAA]
25 µM | O=C(O)CCCc1c[nH]c2ccccc12 [IBA]
1.6 µM | O=C(O)CCc1c[nH]c2ccccc12 [IPA]
20 µM | O=C(O)Cc1cccc2ccccc12 [NAA]
